Results: patent EP4516309A1, “CRHR1 AGONISTS FOR USE IN THE TREATMENT OF SOCIAL ANXIETY DISORDERS” (Consejo Superior de Investigaciones Cientificas, priority 2023, dated 2025)

Tests used:
excitatory DREADD = biological target: T1, excitatory DREADD (Homo sapiens, UniProt P20309, A239G/Y149C); assay: Repetitive social presentation test with chemogenetic activation of ILA CRH cells; format: in vivo, CRH-Cre mice; conditions: CNO; excitatory DREADD in ILA CRH neurons
T1 construct: host or cells: ILA CRH+ neurons of CRH-Cre mice, Cre-dependent AAV2/5 transduction in vivo
Description: (§1) Injection coordinates were the following (in mm from Bregma): AP: 1.65, ML: ±0.1, DV: -2.6. Injections were done bilaterally with 100 nl injected per site. AAV2/DJ hSyn.FLEX.mGFP.2A.Synatophysin-mRuby (Addgene #71760 prepared by the Stanford University vector core #1930), AAV2/8 hSyn.DIO.hM4D(Gi)-mCherry (Addgene #44362-AAV8), AAV2/8 hSyn.DIO.mCherry (Addgene #50459-AAV8), AAV2/5-hSyn-DIO-hM3D(Gq)-mCherry (Addgene, #44361-AAV5), AAV2/5 hsyn.DIO.mCherry (Addgene #50459-AAV5), AAV2/1 syn.FLEX.GCaMP6f.WPRE.SV40 (Addgene #100833-AAV1), AAV2/9 CMV-DIO-(mCherry-U6)-shRNA(anti-Crh) (VTA brain), AAV2/9 CMV-DIO-(mCherry-U6)-shRNA(scrambled) (VTA brain), AAV2/9 hSyn.FLEX.dsRed-shRNA(Vgat) (Addgene #67845), AAV 2/9 hSyn-flex-dsRed-shRNA(scrambled) (Addgene #71383), AAV2/2 CAG.FLEX.ArchT-tdTomato (Addgene #28305 prepared by the University of North Carolina vector core) and AAV2/2 CAG.FLEX.tdTomato (Addgene #28306 prepared by the University of North Carolina vector core) were injected into the ILA of CRH-Cre mice. Viruses expressed for a minimum of 2 weeks.
(§2) Repetitive social presentation test. […] Films were scored offline for social interaction by a trained observer blind to the experimental condition. Sniffing of any part of the body, allo-grooming and close following counted as social interaction. […]

inhibitory DREADD = biological target: T2, inhibitory DREADD (Homo sapiens, UniProt P08173, A203G/Y113C); assay: Repetitive social presentation test with chemogenetic silencing of ILA CRH cells; format: in vivo, CRH-Cre mice; conditions: CNO; iDREADD in ILA CRH cells
T2 construct: host or cells: ILA CRH+ neurons of CRH-Cre mice, Cre-dependent AAV2/8 transduction in vivo
T2 sequence (P08173 1-479 Y113C/A203G): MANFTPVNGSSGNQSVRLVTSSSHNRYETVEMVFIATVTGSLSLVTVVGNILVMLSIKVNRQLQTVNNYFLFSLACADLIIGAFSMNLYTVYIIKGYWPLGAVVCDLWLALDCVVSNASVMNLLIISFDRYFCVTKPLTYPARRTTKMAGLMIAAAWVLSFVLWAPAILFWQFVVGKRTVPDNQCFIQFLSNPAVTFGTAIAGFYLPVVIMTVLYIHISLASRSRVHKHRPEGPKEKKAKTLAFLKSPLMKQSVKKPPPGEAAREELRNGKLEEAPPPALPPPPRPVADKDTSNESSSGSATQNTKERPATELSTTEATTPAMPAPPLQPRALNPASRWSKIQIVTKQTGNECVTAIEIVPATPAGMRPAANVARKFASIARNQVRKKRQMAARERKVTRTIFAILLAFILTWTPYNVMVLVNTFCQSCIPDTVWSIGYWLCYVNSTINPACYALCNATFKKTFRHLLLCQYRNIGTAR
Description: as §1, §2

T1 sequence (P20309 whole entry Y149C/A239G): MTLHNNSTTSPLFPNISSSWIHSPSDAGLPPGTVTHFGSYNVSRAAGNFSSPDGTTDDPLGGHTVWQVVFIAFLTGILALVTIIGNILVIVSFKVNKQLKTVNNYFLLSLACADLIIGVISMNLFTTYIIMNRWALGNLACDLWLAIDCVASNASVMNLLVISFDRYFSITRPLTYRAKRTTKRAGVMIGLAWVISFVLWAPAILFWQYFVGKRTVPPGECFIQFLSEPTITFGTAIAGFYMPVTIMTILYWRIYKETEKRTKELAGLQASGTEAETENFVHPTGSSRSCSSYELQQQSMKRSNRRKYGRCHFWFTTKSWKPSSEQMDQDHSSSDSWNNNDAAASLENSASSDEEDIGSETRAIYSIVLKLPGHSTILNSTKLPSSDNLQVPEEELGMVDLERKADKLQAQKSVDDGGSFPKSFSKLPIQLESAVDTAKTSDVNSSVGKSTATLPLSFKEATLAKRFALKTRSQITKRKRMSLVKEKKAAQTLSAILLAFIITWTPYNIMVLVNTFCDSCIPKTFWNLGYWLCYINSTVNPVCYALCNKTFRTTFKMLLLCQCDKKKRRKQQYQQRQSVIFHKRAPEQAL

For `C[N+]1([O-])CCN(C2=Nc3cc(Cl)ccc3Nc3ccccc32)CC1` [CNO, clozapine N-oxide], the “decrease in social interaction” value (excitatory DREADD) was “slightly facilitated” and the “interaction time during the repeated presentations” value (inhibitory DREADD) was “showed no decrease in interaction time”.
